This is an account of results in patent US11912693B2, “Compounds for modulating S1P1 activity and methods of using the same” (TREVENA, INC., priority 2017, dated 2024).

Test [1] concerns the target T1, human sphingosine-1-phosphate receptor 1 (S1P1) (Homo sapiens (Human), UniProt P21453). The experiment in a line: Inhibition of cAMP production (HTRF cAMP HiRange), S1P1 CHO-K1 cells. The format is cell-based. As to conditions: for Emax: CHO-K1, efficacy (SPAN) normalized to fingolimod, read-out: hS1P1 cAMP SPAN; for hS1P1 cAMP pEC50: inhibition of cAMP production, S1P1 CHO-K1 cells. Put shortly:
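CHO-K1 cells stably co-expressing human S1P1 (C-terminal Prolink tag) and EA-β-arrestin2 were grown in AssayComplete Media 6 at 37° C. and 5% CO2, plated, and incubated overnight. Agonist-driven inhibition of intracellular cAMP was read by TR-FRET with the HTRF cAMP HiRange kit on a PheraStar reader. Potency is pEC50, and efficacy (SPAN) is normalized to fingolimod.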
Background: Cyclic AMP is a second messenger, typically raised through Gs and lowered through Gi signalling.
Target sequence in this assay (P21453 whole entry, looked up): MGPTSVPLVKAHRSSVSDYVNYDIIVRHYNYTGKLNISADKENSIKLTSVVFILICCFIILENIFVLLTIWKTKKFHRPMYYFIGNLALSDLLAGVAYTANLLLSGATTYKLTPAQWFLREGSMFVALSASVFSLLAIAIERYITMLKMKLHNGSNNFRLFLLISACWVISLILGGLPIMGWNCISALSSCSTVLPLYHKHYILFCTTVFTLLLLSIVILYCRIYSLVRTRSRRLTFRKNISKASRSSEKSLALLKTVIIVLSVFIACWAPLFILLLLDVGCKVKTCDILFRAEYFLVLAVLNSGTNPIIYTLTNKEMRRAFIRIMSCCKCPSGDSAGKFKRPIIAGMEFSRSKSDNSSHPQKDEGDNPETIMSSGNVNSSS

Test [2] has as its target T1, human sphingosine-1-phosphate receptor 1 (S1P1). The experiment in a line: β-Arrestin2 recruitment assay (PathHunter), S1P1 CHO-K1 cells. The format is cell-based. As to conditions: for Emax: CHO-K1, efficacy (SPAN) normalized to fingolimod, read-out: hS1P1 B-arrestin2 SPAN; for hS1P1 B-arrestin2 pEC50: β-arrestin2 recruitment, S1P1 CHO-K1 cells. A digest of the protocol: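 Enzyme-fragment complementation read-out: agonist-driven β-arrestin2 binding to ProLink-tagged human S1P1 in stable CHO-K1 cells restores β-galactosidase, measured 1 h at room temperature after a 60 min 37° C. compound incubation. Potency as pEC50, efficacy relative to fingolimod (SPAN).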
A general note: Recruitment of arrestin is a read-out of receptor activation apart from second messengers.
Target sequence in this assay (P21453 whole entry, looked up): as above
Target sequence in this assay (P32121 whole entry partner, looked up): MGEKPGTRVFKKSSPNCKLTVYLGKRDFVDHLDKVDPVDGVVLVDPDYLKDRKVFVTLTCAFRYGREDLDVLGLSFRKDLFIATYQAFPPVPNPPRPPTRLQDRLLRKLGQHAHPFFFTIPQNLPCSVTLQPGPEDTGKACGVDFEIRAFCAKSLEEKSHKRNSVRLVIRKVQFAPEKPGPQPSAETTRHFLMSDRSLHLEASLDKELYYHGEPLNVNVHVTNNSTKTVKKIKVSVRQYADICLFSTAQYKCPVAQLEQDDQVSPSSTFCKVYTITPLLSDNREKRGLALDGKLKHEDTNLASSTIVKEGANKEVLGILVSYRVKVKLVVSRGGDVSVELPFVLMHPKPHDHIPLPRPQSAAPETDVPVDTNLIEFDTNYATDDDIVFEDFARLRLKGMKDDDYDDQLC

Test [3] concerns paclitaxel induced peripheral neuropathy. The experiment in a line: Reversal of allodynia induced by paclitaxel in mice (s.c. or p.o., von Frey frequency method). The format is in vivo, c57bl/6 mice. Particulars: Mus musculus; for inhibition in vivo at 1 mg/kg: sc, 0.5 h, 1 mg/kg s.c., tested 30 min after dosing, read-out: Screen @ 1 mg/kg sc (% MPE); for inhibition in vivo at 3 mg/kg: po, 1 h, 3 mg/kg p.o., tested 60 min after dosing, read-out: Screen @ 3 mg/kg po (% MPE). As for the experimental part:
Compounds were tested for efficacy in mouse models of chemotherapy induced peripheral neuropathy. […] For these studies […]/6 mice are habituated to the test environment and baseline measurements of pain sensitivity are assessed. To determine mechanical responses, the threshold for responses to punctate mechanical stimuli (mechanical hyperalgesia) was tested according to the frequency method. In brief, the plantar surface of the animal hindpaw was stimulated with a single von Frey monofilament (0.4 g) for approximately 1-2 seconds. If there was a withdrawal response, it was recorded as a positive response. A response was defined as a lifting or shaking of the paw upon stimulation. This was repeated ten times for each mouse. The final measurement for each mouse is the % non-response to stimulation for the ten trials. The % non-response to stimulation is converted to a % MPE. For paclitaxel induced peripheral neuropathy, a series of injections of PAC (6 mg/kg, i.p.) on days 1, 3, 5 and 7 is used to induce peripheral neuropathy. After approximately 14 days from the initiation of PAC injections, animals are re-assessed for mechanical sensitivity. […] On test day animals are dosed with compounds either subcutaneously or orally and tested for mechanical response by the frequency method either 30 min (s.c.) or 60 min (p.o.) after drug administration. Data is presented as a % MPE. For oxaliplatin induced peripheral neuropathy, a series of injections of OXA (4 mg/kg, i.p.) on days 1-5 is used to induce peripheral neuropathy. After approximately 14 days from the initiation of PAC injections, animals are re-assessed for mechanical sensitivity. […] On test day animals are dosed with compounds subcutaneously and tested for mechanical response by the frequency method 30 min after drug administration. Data is presented as a % MPE. One or more of the compounds show reversal of chemotherapeutic induced peripheral neuropathy.

Some results are limits rather than exact numbers.

As to `N#Cc1cc(-c2nc(-c3ccc4c(c3)CC(=O)N4)no2)ccc1NCC1CC1` [Compound 210, 2-((cyclopropylmethyl)amino)-5-(3-(2-oxoindolin-5-yl)-1,2,4-oxadiazol-5-yl)benzonitrile], in test [1], the Emax is > 75% and the “hS1P1 cAMP pEC50” value is listed as >6.5. For the same compound, in test [2], the Emax was > 75% and the “hS1P1 B-arrestin2 pEC50” value is on record as >5. In addition, the inhibition in vivo at 1 mg/kg in test [3] was < 50%.

As for `CCC1(CC)CC(=O)c2cc(-c3nc(-c4cccnc4F)no3)ccc2O1` [Compound 547, 2,2-diethyl-6-(3-(2-fluoropyridin-3-yl)-1,2,4-oxadiazol-5-yl)chroman-4-one], in test [1], the “hS1P1 cAMP pEC50” value is given as >6.5. Further, the “hS1P1 B-arrestin2 pEC50” value in test [2] was >5. Moreover, the inhibition in vivo at 3 mg/kg in test [3] is > 50%.

With `CC(C)Nc1ccc(-c2nc(-c3ccc4[nH]c(=O)[nH]c4c3)no2)cc1C#N` [Compound 728, 2-(isopropylamino)-5-(3-(2-oxo-2,3-dihydro-1H-benzo[d]imidazol-5-yl)-1,2,4-oxadiazol-5-yl)benzonitrile], the inhibition in vivo at 3 mg/kg in test [3] is > 50%.

For `Cc1ccccc1-c1noc(-c2ccc3c(c2)nnn3C2CCC2)n1` [Compound 306, 1-cyclobutyl-5-[3-(2-methylphenyl)-1,2,4-oxadiazol-5-yl]-1H-1,2,3-benzotriazole], the “hS1P1 cAMP pEC50” value in test [1] was >6.5. The “hS1P1 B-arrestin2 pEC50” value in test [2] is reported as >5. The inhibition in vivo at 1 mg/kg in test [3] was < 50%.

With `N#Cc1cc(-c2nc(-c3ccc4c(c3)CCC(=O)N4)no2)ccc1NCC(F)(F)F` [Compound 472, 5-[3-(2-oxo-1,2,3,4-tetrahydroquinolin-6-yl)-1,2,4-oxadiazol-5-yl]-2-[(2,2,2-trifluoroethyl)amino]benzonitrile], the “hS1P1 cAMP pEC50” value in test [1] is on record as >6.5. Further, the “hS1P1 B-arrestin2 pEC50” value in test [2] is on record as >5. Also, the inhibition in vivo at 3 mg/kg in test [3] was > 50%.

For `CCC1(CC)CC(=O)c2cc(-c3nc(-c4cnccc4C(F)(F)F)no3)ccc2O1` [Compound 558, 2,2-diethyl-6-(3-(4-(trifluoromethyl)pyridin-3-yl)-1,2,4-oxadiazol-5-yl)chroman-4-one], in test [1], the “hS1P1 cAMP pEC50” value is >6.5. For the same compound, in test [2], the “hS1P1 B-arrestin2 pEC50” value is listed as >5. Moreover, the inhibition in vivo at 3 mg/kg in test [3] was > 50%.

As to `CC(C)Nc1ccc(-c2nnc(-c3ccc4ncccc4c3)o2)cc1C#N` [Compound 736, 2-[(propan-2-yl)amino]-5-[5-(quinolin-6-yl)-1,3,4-oxadiazol-2-yl]benzonitrile], in test [3], the inhibition in vivo at 3 mg/kg is > 50%.

In the case of `CC(C)Nc1ccc(-c2nc(-c3ccc4c(c3)NC(=O)CC4)no2)cc1C#N` [Compound 435, 2-(isopropylamino)-5-(3-(2-oxo-1,2,3,4-tetrahydroquinolin-7-yl)-1,2,4-oxadiazol-5-yl)benzonitrile], in test [1], the “hS1P1 cAMP pEC50” value was >6.5. For the same compound, the “hS1P1 B-arrestin2 pEC50” value in test [2] is reported as >5. For the same compound, the inhibition in vivo at 3 mg/kg in test [3] is > 50%.

`CC(F)CNc1ccc(-c2nc(-c3ccc4c(c3)CCC(=O)N4)no2)cc1C#N` (stereo not shown) [Compound 348, 2-[(2-fluoropropyl)amino]-5-[3-(2-oxo-1,2,3,4-tetrahydroquinolin-6-yl)-1,2,4-oxadiazol-5-yl]benzonitrile]: in test [1], the Emax was > 75% and the “hS1P1 cAMP pEC50” value is on record as >6.5. For the same compound, in test [2], the Emax was > 75% and the “hS1P1 B-arrestin2 pEC50” value is given as >5. The inhibition in vivo at 3 mg/kg in test [3] is > 50%.

For `N#Cc1cc(-c2nc(-c3ccc4[nH]c(=O)[nH]c4c3)no2)ccc1NCC1CC1` [Compound 729, 2-((cyclopropylmethyl)amino)-5-(3-(2-oxo-2,3-dihydro-1H-benzo[d]imidazol-5-yl)-1,2,4-oxadiazol-5-yl)benzonitrile], the inhibition in vivo at 3 mg/kg in test [3] is > 50%.

In the case of `CCC1(CC)CC(=O)c2cc(-c3nc(-c4ccc(C(N)=O)cc4)no3)ccc2O1` [Compound 179, 4-(5-(2,2-diethyl-4-oxochroman-6-yl)-1,2,4-oxadiazol-3-yl)benzamide], in test [1], the Emax was > 75% and the “hS1P1 cAMP pEC50” value is listed as >6.5. In test [2], the Emax is > 75% and the “hS1P1 B-arrestin2 pEC50” value is given as >5. In test [3], the inhibition in vivo at 3 mg/kg is > 50% and the inhibition in vivo at 1 mg/kg is > 50%.

As to `N#Cc1cc(-c2nc(-c3ccc4[nH]c(=O)oc4c3)no2)ccc1NCC1CC1` [Compound 726, 2-(cyclopropylmethylamino)-5-[3-(2-oxo-3H-1,3-benzoxazol-6-yl)-1,2,4-oxadiazol-5-yl]benzonitrile], the inhibition in vivo at 3 mg/kg in test [3] is > 50%.

Turning to `CC(C)Nc1ccc(-c2nnc(-c3ccc4ncn(C)c4c3)o2)cc1C#N` [Compound 579, 5-[5-(1-methyl-1H-1,3-benzodiazol-6-yl)-1,3,4-oxadiazol-2-yl]-2-[(propan-2-yl)amino]benzonitrile], in test [1], the “hS1P1 cAMP pEC50” value is recorded as >6.5. Besides, the “hS1P1 B-arrestin2 pEC50” value in test [2] is >5. Moreover, the inhibition in vivo at 3 mg/kg in test [3] was > 50%.

As to `CCC1(CC)CC(=O)c2cc(-c3nc(-c4cncc(C)c4)no3)ccc2O1` [Compound 563, 2,2-diethyl-6-(3-(5-methylpyridin-3-yl)-1,2,4-oxadiazol-5-yl)chroman-4-one], the “hS1P1 cAMP pEC50” value in test [1] is >6.5. Also, in test [2], the “hS1P1 B-arrestin2 pEC50” value is reported as >5. The inhibition in vivo at 3 mg/kg in test [3] is < 50%.

On to `CC(C)Nc1ccc(-c2nnc(-c3cccc4[nH]cnc34)o2)cc1C#N` [Compound 585, 5-[5-(1H-1,3-benzodiazol-4-yl)-1,3,4-oxadiazol-2-yl]-2-[(propan-2-yl)amino]benzonitrile], for which the “hS1P1 cAMP pEC50” value in test [1] is >6.5. For the same compound, the “hS1P1 B-arrestin2 pEC50” value in test [2] is given as >5. Also, the inhibition in vivo at 3 mg/kg in test [3] was < 50%.

With `N#Cc1cc(-c2nnc(-c3ccc4cnccc4c3)o2)ccc1NCC(F)F` [Compound 733, 2-[(2,2-difluoroethyl)amino]-5-[5-(isoquinolin-6-yl)-1,3,4-oxadiazol-2-yl]benzonitrile], the inhibition in vivo at 3 mg/kg in test [3] was > 50%.

`CC(C)Nc1ccc(-c2nnc(-c3ccc4cnccc4c3)o2)cc1C#N` [Compound 735, 5-[5-(isoquinolin-6-yl)-1,3,4-oxadiazol-2-yl]-2-[(propan-2-yl)amino]benzonitrile]: the inhibition in vivo at 3 mg/kg in test [3] is < 50%.

With `N#Cc1cc(-c2nc(-c3ccc4c(c3)CNC4=O)no2)ccc1NCC1CC1` [Compound 727, 2-((cyclopropylmethyl)amino)-5-(3-(1-oxoisoindolin-5-yl)-1,2,4-oxadiazol-5-yl)benzonitrile], in test [3], the inhibition in vivo at 3 mg/kg was > 50%.

For `Cc1ccccc1-c1noc(-c2ccc3scnc3c2)n1` [Compound 362, 5-[3-(2-methylphenyl)-1,2,4-oxadiazol-5-yl]-1,3-benzothiazole], in test [1], the “hS1P1 cAMP pEC50” value is reported as <6.5. Further, the “hS1P1 B-arrestin2 pEC50” value in test [2] is on record as <5.

`FC(F)Oc1ccc(-c2noc(-c3ccc4c(c3)nnn4C3CCCC3)n2)cc1` [Compound 80, 1-cyclopentyl-5-{3-[4-(difluoromethoxy)phenyl]-1,2,4-oxadiazol-5-yl}-1H-1,2,3-benzotriazole]: in test [1], the Emax is < 75% and the “hS1P1 cAMP pEC50” value was >6.5. Also, in test [2], the Emax is < 75% and the “hS1P1 B-arrestin2 pEC50” value is <5.

On to `CCC1(CC)CC(=O)c2cc(-c3nc(-c4sccc4C)no3)ccc2O1` [Compound 265, 2,2-diethyl-6-(3-(3-methylthiophen-2-yl)-1,2,4-oxadiazol-5-yl)chroman-4-one], for which, in test [1], the Emax was > 75% and the “hS1P1 cAMP pEC50” value was >6.5. Besides, in test [2], the Emax was < 75% and the “hS1P1 B-arrestin2 pEC50” value is on record as >5.

Regarding `CCC1(CC)CC(=O)c2cc(-c3nc(-c4ccnc(F)c4)no3)ccc2O1` [Compound 146, 2,2-diethyl-6-(3-(2-fluoropyridin-4-yl)-1,2,4-oxadiazol-5-yl)chroman-4-one], in test [1], the Emax is > 75% and the “hS1P1 cAMP pEC50” value was >6.5. For the same compound, in test [2], the Emax was < 75% and the “hS1P1 B-arrestin2 pEC50” value was >5.
